Molecular target: T1, MLLT1 (Homo sapiens, UniProt Q03111)
T1 construct: endogenous in cells; host or cells: MV4-11 (ATCC CRL-9591)
T1 sequence (Q03111 1-559): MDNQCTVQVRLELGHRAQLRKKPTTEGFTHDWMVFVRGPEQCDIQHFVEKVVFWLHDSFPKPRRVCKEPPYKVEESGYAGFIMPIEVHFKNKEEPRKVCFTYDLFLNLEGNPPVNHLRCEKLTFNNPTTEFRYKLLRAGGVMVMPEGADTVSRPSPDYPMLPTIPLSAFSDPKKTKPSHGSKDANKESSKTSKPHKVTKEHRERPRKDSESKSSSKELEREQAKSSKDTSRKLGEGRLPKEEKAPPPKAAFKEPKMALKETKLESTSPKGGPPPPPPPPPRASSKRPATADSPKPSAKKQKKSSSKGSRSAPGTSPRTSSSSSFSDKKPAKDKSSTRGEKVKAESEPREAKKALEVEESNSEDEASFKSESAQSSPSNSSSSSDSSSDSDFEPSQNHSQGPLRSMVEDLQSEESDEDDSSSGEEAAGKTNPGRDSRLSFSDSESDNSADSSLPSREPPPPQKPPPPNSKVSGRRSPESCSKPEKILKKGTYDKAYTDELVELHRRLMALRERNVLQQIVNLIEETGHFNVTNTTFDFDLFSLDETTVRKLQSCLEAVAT
Assay: MLLT1 degradation assay (JESS automated chemiluminescent detection) in MV4-11 cells
Type: cell-based
Details: 24h, with respect to DMSO control
Experimental: MLLT1 degradation efficacy of compounds was tested in an automated chemiluminescent detection system (JESS, Cat# 004-650). MV4-11 (#CRL-9591, ATCC) cells were seeded at a density of 1.2 million cells/well in a non-treated 6-well cell culture plate in 2.4 mL of complete medium (IMDM + 10% FBS + 1X Penicillin-Streptomycin). 10 mM DMSO stocks were prepared, and cells were treated with three concentrations of test compounds viz. 1000, 100 and 10 nM at a final DMSO concentration of 0.1% and incubated for 24h at 37°C, 5% CO2. Post incubation, cells were centrifuged, washed with HBSS and lysed in 70 uL of RIPA buffer supplemented with Protease inhibitors (sc-24948; Santa Cruz). Subsequently, protein estimation was done using BCA protein assay kit (23225; Pierce). 4 ug protein lysate (4 uL of 1ug/uL lysate) was loaded into each well of the JESS cartridge (SM-WO01; Bio-techne) and the JESS run was performed using 1:900 dilution of anti-human MLLT1 antibody (14893; Cell signaling technology) and 1:1200 dilution of anti-human GAPDH antibody (2118; Cell signaling technology) with anti-rabbit secondary detection module (DM-001; Bio-Techne). Post run, data were analysed using "Compass for SW" software for chemiluminescent detection. The peak area for each band was used for the calculation of MLLT1 degradation with respect to DMSO control. Data is shown as "MLLT1 % degradation". Category A: A ≥ 75% degradation Category B: 50% ≤ B < 75% degradation Category C: 25% ≤ C < 50% degradation Category D: D < 25% degradation Table 1

inhibition at 0.01 µM [%] | inhibition at 0.1 µM [%] | inhibition at 1 µM [%] | Compound
≥ 75 | ≥ 75 | ≥ 75 | Cc1nn(CCCCCCCC=C(Cl)c2ccc3c(c2)n(C)c(=O)n3C2CCC(=O)NC2=O)c2cc(C(=O)Nc3cc4[nH]c([C@H]5CCCN5C)cc4cn3)ccc12 (mixture of isomers) [Example 40]
50 to 75 | ≥ 75 | ≥ 75 | Cc1nn(CCCCCCCCNc2cccc3c2C(=O)N(C2CCC(=O)NC2=O)C3=O)c2cc(C(=O)Nc3cc4[nH]c(C5CCCN5C)cc4cn3)ccc12 (racemic) [Example 2, rac-1-(8-{[2-(2,6-dioxopiperidin-3-yl)-1,3-dioxoisoindol-4-yl]amino}octyl)-3-methyl-N-[2-(1-methylpyrrolidin-2-yl)-1H-pyrrolo[3,2-c]pyridin-6-yl]indazole-6-carboxamide]
≥ 75 | ≥ 75 | ≥ 75 | Cc1nn(CCCCCCCC#Cc2cccc3c2CN(C2CCC(=O)NC2=O)C3=O)c2cc(C(=O)Nc3cc4[nH]c([C@H]5CC6(CC6)CN5C)cc4cn3)ccc12 (stereo in doubt) [Example 56, 1-(9-(2-(2,6-dioxopiperidin-3-yl)-1-oxoisoindolin-4-yl)non-8-yn-1-yl)-3-methyl-N-(2-((rel-R)-5-methyl-5-azaspiro[2.4]heptan-6-yl)-1H-pyrrolo[3,2-c]pyridin-6-yl)-1H-indazole-6-carboxamide]
50 to 75 | ≥ 75 | ≥ 75 | Cc1nn(CCCCCCCCNc2cccc3c2C(=O)N(C2CCC(=O)NC2=O)C3=O)c2cc(C(=O)Nc3cc4[nH]c([C@H]5CCCN5C)cc4cn3)ccc12 (stereo partly drawn) [Example 3, 1-(8-{[2-(2,6-dioxopiperidin-3-yl)-1,3-dioxoisoindol-4-yl]amino}octyl)-3-methyl-N-{2-[(2R)-1-methylpyrrolidin-2-yl]-1H-pyrrolo[3,2-c]pyridin-6-yl}indazole-6-carboxamide]
< 25 | < 25 | 50 to 75 | Cc1nn(CCCCCCCCNc2cccc3c2C(=O)N(C2CCC(=O)NC2=O)C3=O)c2cc(C(=O)Nc3cc4[nH]c([C@@H]5CCCN5C)cc4cn3)ccc12 (stereo partly drawn) [Example 4, 1-(8-{[2-(2,6-dioxopiperidin-3-yl)-1,3-dioxoisoindol-4-yl]amino}octyl)-3-methyl-N-{2-[(2S)-1-methylpyrrolidin-2-yl]-1H-pyrrolo [3,2-c]pyridin-6-yl}indazole-6-carboxamide]
50 to 75 | 50 to 75 | 25 to 50 | Cc1c2ccc(C(=O)Nc3cc4[nH]c([C@H]5CCCN5C)cc4cn3)cc2nn1CCCCCCCCNc1cccc2c1C(=O)N(C1CCC(=O)NC1=O)C2=O (stereo partly drawn) [Example 5, 2-(8-((2-(2,6-dioxopiperidin-3-yl)-1,3-dioxoisoindolin-4-yl)amino)octyl)-3-methyl-N-(2-((R)-1-methylpyrrolidin-2-yl)-1H-pyrrolo[3,2-c]pyridin-6-yl)-2H-indazole-6-carboxamide]
25 to 50 | 50 to 75 | ≥ 75 | CN1CCC[C@@H]1c1cc2cnc(NC(=O)c3ccc4c(c3)c(N3CCC(CN5CCN(c6cc7c(cc6F)C(=O)N(C6CCC(=O)NC6=O)C7=O)CC5)CC3)nn4C)cc2[nH]1 (stereo partly drawn) [Example 6, 3-[4-({4-[2-(2,6-dioxopiperidin-3-yl)-6-fluoro-1,3-dioxoisoindol-5-yl]piperazin-1-yl}methyl)piperidin-1-yl]-1-methyl-N-{2-[(2R)-1-methylpyrrolidin-2-yl]-1H-pyrrolo[3,2-c]pyridin-6-yl}indazole-5-carboxamide]
< 25 | 25 to 50 | ≥ 75 | Cc1c(OCCCCCCCCn2nc(C)c3ccc(C(=O)Nc4cc5[nH]c([C@H]6CCCN6C)cc5cn4)cc32)cccc1N1CCC(=O)NC1=O [Example 9, 1-{8-[3-(2,4-dioxo-1,3-diazinan-1-yl)-2-methylphenoxy]octyl}-3-methyl-N-{2-[(2R)-1-methylpyrrolidin-2-yl]-1H-pyrrolo[3,2-c]pyridin-6-yl}indazole-6-carboxamide]
25 to 50 | 25 to 50 | 25 to 50 | Cc1c(OCCCCCCn2nc(C)c3ccc(C(=O)Nc4cc5[nH]c([C@H]6CCCN6C)cc5cn4)cc32)cccc1N1CCC(=O)NC1=O [Example 10, 1-16-[3-(2,4-dioxo-1,3-diazinan-1-yl)-2-methylphenoxy]hexyll-3-methyl-N-{2-[(2R)-1-methylpyrrolidin-2-yl]-1H-pyrrolo [3,2-c]pyridin-6-yl}indazole-6-carboxamide]
50 to 75 | 50 to 75 | 50 to 75 | Cc1nn(CCCCCC#Cc2cccc3c2n(C)c(=O)n3C2CCC(=O)NC2=O)c2cc(C(=O)Nc3cc4[nH]c([C@H]5CCCN5C)cc4cn3)ccc12 (stereo partly drawn) [Example 11, 1-{7-[1-(2,6-dioxopiperidin-3-yl)-3-methyl-2-oxo-1,3-benzodiazol-4-yl]hept-6-yn-1-yl}-3-methyl-N-{2-[(2R)-1-methylpyrrolidin-2-yl]-1H-pyrrolo[3,2-c]pyridin-6-yl}indazole-6-carboxamide]
≥ 75 | ≥ 75 | ≥ 75 | Cc1nn(CCCCCCCCNc2cccc3c2C(=O)N(C2CCC(=O)NC2=O)C3=O)c2cc(C(=O)Nc3cc4[nH]c([C@H]5CCCN5C)c(Cl)c4cn3)ccc12 (stereo partly drawn) [Example 18, N-(3-chloro-2-((R)-1-methylpyrrolidin-2-yl)-1H-pyrrolo[3,2-c]pyridin-6-yl)-1-(8-((2-(2,6-dioxopiperidin-3-yl)-1,3-dioxoisoindolin-4-yl)amino)octyl)-3-methyl-1H-indazole-6-carboxamide]
25 to 50 | 25 to 50 | ≥ 75 | Cc1nn(CCCCN2CCN(c3ccc4c(c3)C(=O)N(C3CCC(=O)NC3=O)C4=O)CC2)c2cc(C(=O)Nc3cc4[nH]c([C@@H]5CCCN5C)cc4cn3)ccc12 (stereo partly drawn) [Example 20, 1-(4-{4-[2-(2,6-dioxopiperidin-3-yl)-1,3-dioxoisoindol-5-yl]piperazin-1-yl}butyl)-3-methyl-N-{2-[(2S)-1-methylpyrrolidin-2-yl]-1H-pyrrolo[3,2-c]pyridin-6-yl}indazole-6-carboxamide]
≥ 75 | ≥ 75 | ≥ 75 | Cc1nn(CCCCCN2CCN(c3cc4c(cc3F)C(=O)N(C3CCC(=O)NC3=O)C4=O)CC2)c2cc(C(=O)Nc3cc4[nH]c([C@H]5CCCN5C)cc4cn3)ccc12 (stereo partly drawn) [Example 23, 1-(5-(4-(2-(2,6-dioxopiperidin-3-yl)-6-fluoro-1,3-dioxoisoindolin-5-yl)piperazin-1-yl)pentyl)-3-methyl-N-(2-((R)-1-methylpyrrolidin-2-yl)-1H-pyrrolo[3,2-c]pyridin-6-yl)-1H-indazole-6-carboxamide]
 | 50 to 75 | ≥ 75 | Cc1nn(CCOCCN2CCN(c3cc4c(cc3F)C(=O)N(C3CCC(=O)NC3=O)C4=O)CC2)c2cc(C(=O)Nc3cc4[nH]c([C@H]5CCCN5C)cc4cn3)ccc12 (stereo partly drawn) [Example 24, 1-(2-(2-(4-(2-(2,6-dioxopiperidin-3-yl)-6-fluoro-1,3-dioxoisoindolin-5-yl)piperazin-1-yl)ethoxy)ethyl)-3-methyl-N-(2-((R)-1-methylpyrrolidin-2-yl)-1H-pyrrolo[3,2-c]pyridin-6-yl)-1H-indazole-6-carboxamide]
≥ 75 | ≥ 75 | ≥ 75 | Cc1nn(CCCC2CCN(c3cccc4c3C(=O)N(C3CCC(=O)NC3=O)C4=O)CC2)c2cc(C(=O)Nc3cc4[nH]c([C@H]5CCCN5C)cc4cn3)ccc12 (stereo partly drawn) [Example 27, 1-(3-(1-(2-(2,6-dioxopiperidin-3-yl)-1,3-dioxoisoindolin-4-yl)piperidin-4-yl)propyl)-3-methyl-N-(2-((R)-1-methylpyrrolidin-2-yl)-1H-pyrrolo[3,2-c]pyridin-6-yl)-1H-indazole-6-carboxamide]

Reference: patent EP4667466A1, “PROTAC DEGRADERS OF MLLT1 AND/OR MLLT3” (priority 2024, dated 2025)
